In US20090304692A1, “TRIAZINE COMPOUNDS AS PI3 KINASE AND MTOR INHIBITORS” (Wyeth, priority 2008, published 2009):
Values joined by “and” are separate entries in the source; they are usually repeats but may differ in a detail not shown here. Equal values may be shown once. Read-outs that look alike come from different tables or passages of the source.

How the values were obtained:
[1] = tested on: human breast MDA-MB-361 tumor cell line; assay: In vitro cell culture growth assay (MTS), MDA-MB-361; type: cell-based; details: Homo sapiens
[2] = tested on: human prostate PC3-mm2 tumor cell line; assay: In vitro cell culture growth assay (MTS), PC3-mm2; type: cell-based; details: Homo sapiens, PC3MM2, 72 h
PI3K-α = PI3K-α (Homo sapiens, UniProt P42336); assay: PI3K-alpha fluorescence polarization assay; details: read-out: IC50 PI3Kα
Chain of PI3K-α (P42336 whole entry, species assumed): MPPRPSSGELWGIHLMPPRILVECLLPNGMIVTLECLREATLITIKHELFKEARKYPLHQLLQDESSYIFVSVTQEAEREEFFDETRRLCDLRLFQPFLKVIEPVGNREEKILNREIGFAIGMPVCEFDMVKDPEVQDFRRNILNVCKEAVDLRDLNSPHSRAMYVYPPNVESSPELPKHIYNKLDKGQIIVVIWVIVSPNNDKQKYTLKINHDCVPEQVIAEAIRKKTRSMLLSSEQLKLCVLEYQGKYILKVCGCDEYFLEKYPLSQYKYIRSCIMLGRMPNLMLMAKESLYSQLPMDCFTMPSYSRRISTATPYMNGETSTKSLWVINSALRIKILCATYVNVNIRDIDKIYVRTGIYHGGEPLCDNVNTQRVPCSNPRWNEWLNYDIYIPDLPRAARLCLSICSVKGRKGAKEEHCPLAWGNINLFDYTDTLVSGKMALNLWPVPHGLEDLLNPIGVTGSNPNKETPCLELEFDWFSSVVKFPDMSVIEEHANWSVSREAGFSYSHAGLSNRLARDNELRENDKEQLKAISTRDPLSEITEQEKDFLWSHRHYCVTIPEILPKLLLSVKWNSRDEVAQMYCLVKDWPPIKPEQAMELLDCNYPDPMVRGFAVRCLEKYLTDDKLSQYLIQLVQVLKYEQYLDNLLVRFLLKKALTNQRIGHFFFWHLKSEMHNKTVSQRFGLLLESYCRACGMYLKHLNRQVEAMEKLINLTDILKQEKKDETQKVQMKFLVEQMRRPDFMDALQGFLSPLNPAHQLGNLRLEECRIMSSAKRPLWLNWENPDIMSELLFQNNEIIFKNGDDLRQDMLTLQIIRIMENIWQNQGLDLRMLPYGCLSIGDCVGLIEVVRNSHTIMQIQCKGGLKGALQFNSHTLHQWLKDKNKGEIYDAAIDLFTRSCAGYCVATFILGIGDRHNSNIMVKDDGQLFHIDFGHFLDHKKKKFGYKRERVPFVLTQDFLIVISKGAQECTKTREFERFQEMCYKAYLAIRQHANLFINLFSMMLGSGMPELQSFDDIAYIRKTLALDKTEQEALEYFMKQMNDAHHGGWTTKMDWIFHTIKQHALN
Chain of PI3K-α (P27986 whole entry partner, species assumed): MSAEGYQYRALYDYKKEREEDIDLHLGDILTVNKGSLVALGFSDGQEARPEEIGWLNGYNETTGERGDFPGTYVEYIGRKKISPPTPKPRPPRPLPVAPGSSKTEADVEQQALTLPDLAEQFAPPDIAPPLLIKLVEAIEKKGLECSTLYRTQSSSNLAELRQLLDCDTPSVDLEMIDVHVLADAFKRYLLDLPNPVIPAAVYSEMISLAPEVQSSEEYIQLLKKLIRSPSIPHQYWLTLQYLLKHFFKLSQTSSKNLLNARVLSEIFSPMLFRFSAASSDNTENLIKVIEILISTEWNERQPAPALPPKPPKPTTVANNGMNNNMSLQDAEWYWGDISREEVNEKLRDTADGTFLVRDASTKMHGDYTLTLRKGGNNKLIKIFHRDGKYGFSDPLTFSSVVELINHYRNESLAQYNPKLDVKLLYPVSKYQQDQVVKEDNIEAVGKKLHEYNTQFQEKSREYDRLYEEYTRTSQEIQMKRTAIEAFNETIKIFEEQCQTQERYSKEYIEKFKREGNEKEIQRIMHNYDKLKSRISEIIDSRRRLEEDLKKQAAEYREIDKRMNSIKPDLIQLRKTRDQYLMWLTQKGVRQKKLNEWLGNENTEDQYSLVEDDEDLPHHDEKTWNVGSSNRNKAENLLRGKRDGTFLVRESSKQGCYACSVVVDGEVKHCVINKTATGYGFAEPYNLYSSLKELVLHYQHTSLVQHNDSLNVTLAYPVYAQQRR

PI3K-γ = PI3K-γ (Homo sapiens, UniProt P48736); assay: PI3K-gamma fluorescence polarization assay; details: read-out: IC50 PI3Kγ
Chain of PI3K-γ (P48736 whole entry, species assumed): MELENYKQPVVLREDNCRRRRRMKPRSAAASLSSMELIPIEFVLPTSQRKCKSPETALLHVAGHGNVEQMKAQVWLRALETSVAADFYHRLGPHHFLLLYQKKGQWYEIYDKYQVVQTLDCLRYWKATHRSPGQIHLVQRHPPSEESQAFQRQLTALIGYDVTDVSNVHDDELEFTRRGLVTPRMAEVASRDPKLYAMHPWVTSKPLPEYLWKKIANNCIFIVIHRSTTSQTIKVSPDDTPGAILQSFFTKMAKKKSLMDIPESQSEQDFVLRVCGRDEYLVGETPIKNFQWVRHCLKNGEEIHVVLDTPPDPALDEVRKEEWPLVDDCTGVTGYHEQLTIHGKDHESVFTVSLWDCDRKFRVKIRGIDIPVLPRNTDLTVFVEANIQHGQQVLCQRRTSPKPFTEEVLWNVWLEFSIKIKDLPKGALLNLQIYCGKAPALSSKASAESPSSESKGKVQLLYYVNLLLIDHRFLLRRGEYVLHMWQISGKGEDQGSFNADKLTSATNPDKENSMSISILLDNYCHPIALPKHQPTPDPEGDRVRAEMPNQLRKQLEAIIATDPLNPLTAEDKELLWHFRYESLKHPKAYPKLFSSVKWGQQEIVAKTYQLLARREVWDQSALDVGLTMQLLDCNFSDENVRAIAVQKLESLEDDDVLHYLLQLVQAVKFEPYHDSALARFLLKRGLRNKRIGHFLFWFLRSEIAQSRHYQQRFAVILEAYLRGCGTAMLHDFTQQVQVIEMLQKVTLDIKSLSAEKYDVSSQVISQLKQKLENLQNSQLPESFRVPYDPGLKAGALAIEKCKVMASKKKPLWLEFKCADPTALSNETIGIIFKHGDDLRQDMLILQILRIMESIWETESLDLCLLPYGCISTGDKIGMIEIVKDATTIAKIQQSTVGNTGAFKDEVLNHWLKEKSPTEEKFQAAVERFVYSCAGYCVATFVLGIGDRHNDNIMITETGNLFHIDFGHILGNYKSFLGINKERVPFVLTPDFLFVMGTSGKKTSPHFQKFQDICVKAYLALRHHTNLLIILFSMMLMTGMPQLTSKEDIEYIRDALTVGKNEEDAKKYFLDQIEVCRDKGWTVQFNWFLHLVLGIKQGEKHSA

Human mTOR (FLAG-TOR) = Human mTOR (FLAG-TOR) (Homo sapiens, UniProt P42345); assay: mTOR kinase assay (DELFIA format, purified enzyme); type: biochemical
Chain of Human mTOR (FLAG-TOR) (P42345 1360-2549 limits assumed): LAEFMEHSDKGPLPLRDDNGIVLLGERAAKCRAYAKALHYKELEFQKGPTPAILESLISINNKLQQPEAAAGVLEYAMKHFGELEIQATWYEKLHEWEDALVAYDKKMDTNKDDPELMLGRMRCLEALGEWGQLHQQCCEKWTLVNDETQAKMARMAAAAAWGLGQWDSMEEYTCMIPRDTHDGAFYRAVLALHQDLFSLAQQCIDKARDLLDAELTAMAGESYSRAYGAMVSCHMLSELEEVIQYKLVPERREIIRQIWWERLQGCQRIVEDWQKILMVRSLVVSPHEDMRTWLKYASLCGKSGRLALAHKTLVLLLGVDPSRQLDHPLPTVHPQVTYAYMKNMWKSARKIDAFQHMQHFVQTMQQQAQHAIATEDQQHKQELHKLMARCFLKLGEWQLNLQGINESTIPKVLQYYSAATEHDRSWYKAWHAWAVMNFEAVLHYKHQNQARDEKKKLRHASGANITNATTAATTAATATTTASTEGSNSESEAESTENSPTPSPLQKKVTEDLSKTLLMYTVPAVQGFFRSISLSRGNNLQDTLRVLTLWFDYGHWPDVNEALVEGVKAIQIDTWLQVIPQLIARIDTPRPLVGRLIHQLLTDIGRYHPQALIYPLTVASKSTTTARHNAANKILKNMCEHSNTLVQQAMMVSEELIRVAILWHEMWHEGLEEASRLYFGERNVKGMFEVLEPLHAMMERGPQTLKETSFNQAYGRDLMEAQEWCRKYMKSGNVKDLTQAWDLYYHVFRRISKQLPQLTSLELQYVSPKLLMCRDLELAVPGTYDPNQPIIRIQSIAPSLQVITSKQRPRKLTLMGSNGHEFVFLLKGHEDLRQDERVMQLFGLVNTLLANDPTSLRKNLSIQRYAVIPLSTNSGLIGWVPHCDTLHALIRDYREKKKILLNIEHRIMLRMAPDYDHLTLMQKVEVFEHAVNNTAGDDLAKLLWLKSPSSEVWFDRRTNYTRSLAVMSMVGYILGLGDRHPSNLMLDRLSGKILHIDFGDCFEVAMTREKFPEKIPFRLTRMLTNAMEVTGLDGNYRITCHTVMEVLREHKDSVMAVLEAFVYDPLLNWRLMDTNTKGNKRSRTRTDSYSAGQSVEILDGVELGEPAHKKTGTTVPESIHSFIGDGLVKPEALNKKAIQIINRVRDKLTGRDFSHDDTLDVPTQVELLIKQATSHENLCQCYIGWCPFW

[3] = MDA-MB-361, 72 h, MTS cell growth assay, three days after drug treatment, read-out: IC50 MDA-MB-361
[4] = MTS cell growth assay, three days after drug treatment, read-out: IC50 PC3-mm2
[5] = 72 h, MTS cell growth assay, three days after drug treatment, MDA-MB-361 cells, read-out: IC50 MDA-MB-361
[6] = MTS cell growth assay, three days after drug treatment, PC3-mm2 cells, read-out: IC50 PC3-mm2
[7] = MDA-MB-361, 72 h, MTS cell growth assay, three days after drug treatment, MDA-MB-361 cells, read-out: IC50 MDA-MB-361

Structure (SMILES)	IC50 [1, 3] [nM]	IC50 [2, 4] [nM]	IC50 (PI3K-α) [nM]	IC50 (PI3K-γ) [nM]	IC50 (Human mTOR (FLAG-TOR); read-out: IC50 mTOR)	IC50 [1, 5] [nM]	IC50 [2, 6] [nM]	IC50 [1, 7] [nM]	IC50 (PI3K-γ; listed as 727) [nM]	IC50 (Human mTOR (FLAG-TOR); IC50 mTOR)	IC50 (PI3K-α; listed as 705) [nM]	IC50 (PI3K-α; listed as 733) [nM]	IC50 (PI3K-γ; listed as 733) [nM]	IC50 ([1]; MDA-MB-361, 72 h, read-out: IC50 MDA-MB-361, MTS cell growth assay, three days after drug treatment) [nM]	IC50 ([2]; read-out: IC50 PC3-mm2, MTS cell growth assay, three days after drug treatment) [nM]
CCCCc1nc(-c2ccc(NC(=O)Nc3ccc(C(=O)N4CCC(N(C)C)CC4)cc3)cc2)nc(N2CCOCC2)n1 [Example 241, 1-[4-(4-butyl-6-morpholin-4-yl-1,3,5-triazin-2-yl)phenyl]-3-(4-{[4-(dimethylamino)piperidin-1-yl]carbonyl}phenyl)urea]	24	135	6	23	9 nM										
C[C@H]1COCCN1c1nc(-c2ccc(NC(=O)Nc3ccc(C(=O)NCCCN(C)C)cc3)cc2)nc(N2CCOCC2)n1 [Example 621, N-[3-(dimethylamino)propyl]-4-{[(4-{4-[(3S)-3-methylmorpholin-4-yl]-6-morpholin-4-yl-1,3,5-triazin-2-yl}phenyl)carbamoyl]amino}benzamide]			3.5	43.5	1 nM	8	35								
O=C(Nc1ccncc1)Nc1ccc(-c2nc(N3CCOCC3)nc(N3C4COCC3C(O)C4)n2)cc1 (stereo not drawn) [Example 273, 1-{4-[4-(6-hydroxy-3-oxa-8-azabicyclo[3.2.1]oct-8-yl)-6-morpholin-4-yl-1,3,5-triazin-2-yl]phenyl}-3-pyridin-4-ylurea]	32	80	4	33	0.8 nM										
CN(C)CCN(C)C(=O)c1ccc(NC(=O)Nc2ccc(-c3nc(-c4ccccc4)nc(N4CCOCC4)n3)cc2)cc1 [Example 539, N-[2-(dimethylamino)ethyl]-N-methyl-4-({[4-(4-morpholin-4-yl-6-phenyl-1,3,5-triazin-2-yl)phenyl]carbamoyl}amino)benzamide]			1.1	16	0.0085 nM	9	161								
O=C(Nc1ccc(C(=O)N2CCCC2)cc1)Nc1ccc(-c2nc(N3CCCC3)nc(N3CCOCC3)n2)cc1 [Example 612, 1-[4-(4-morpholin-4-yl-6-pyrrolidin-1-yl-1,3,5-triazin-2-yl)phenyl]-3-[4-(pyrrolidin-1-ylcarbonyl)phenyl]urea]			5.5	67	61 nM		227	38							
CN1CCN(C(=O)c2ccc(NC(=O)Nc3ccc(-c4nc(N5CCOCC5)nc(N5C6CCCC5COC6)n4)cc3)cc2)CC1 [Example 792, 1-{4-[(4-methylpiperazin-1-yl)carbonyl]phenyl}-3-{4-[4-morpholin-4-yl-6-(3-oxa-9-azabicyclo[3.3.1]non-9-yl)-1,3,5-triazin-2-yl]phenyl}urea]			3.3	35.5	0.81 nM		16	2							
CN1CCN(Cc2ccc(NC(=O)Nc3ccc(-c4nc(N5CCOCC5)nc(N5C6CCC5COC6)n4)cc3)cc2)CC1 [Example 250, 1-{4-[(4-methylpiperazin-1-yl)methyl]phenyl}-3-{4-[4-morpholin-4-yl-6-(3-oxa-8-azabicyclo[3.2.1]oct-8-yl)-1,3,5-triazin-2-yl]phenyl}urea]	14	31	21	190			31	14	190	0.9 nM and 0.805 nM					
CN(C)C1CCN(C(=O)c2ccc(NC(=O)Nc3ccc(-c4nc(N5CCOCC5)nc(N5C6COCC5COC6)n4)cc3)cc2)CC1 [Example 767, 1-(4-{[4-(dimethylamino)piperidin-1-yl]carbonyl}phenyl)-3-{4-[4-(3,7-dioxa-9-azabicyclo[3.3.1]non-9-yl)-6-morpholin-4-yl-1,3,5-triazin-2-yl]phenyl}urea]			2.1	17	0.2 nM		13	5							
CCc1nc(-c2ccc(NC(=O)Nc3ccc(N4CCN(C)CC4)cc3)cc2)nc(N2CCOCC2)n1 [Example 296, 1-[4-(4-ethyl-6-morpholin-4-yl-1,3,5-triazin-2-yl)phenyl]-3-[4-(4-methylpiperazin-1-yl)phenyl]urea]	83	133	13	35	21 nM										
O=C(Nc1ccncc1)Nc1ccc(-c2nc(N3CCOCC3)nc(N3CCC4(CC3)OCCO4)n2)cc1 [Example 130, 1-{4-[4-(1,4-dioxa-8-azaspiro[4.5]dec-8-yl)-6-morpholin-4-yl-1,3,5-triazin-2-yl]phenyl}-3-pyridin-4-ylurea]	191	416	14	132	8 nM and 12.4 nM		416				13.5				
CC(C)N1CCN(C(=O)c2ccc(NC(=O)Nc3ccc(-c4nc(O[C@H]5CCOC5)nc(N5CCOCC5)n4)cc3)cc2)CC1 [Example 522, 1-(4-{[4-(1-methylethyl)piperazin-1-yl]carbonyl}phenyl)-3-(4-{4-morpholin-4-yl-6-[(3S)-tetrahydrofuran-3-yloxy]-1,3,5-triazin-2-yl}phenyl)urea]			1.4	7.5	1.06 nM	3	11								
CN1CCN(C(=O)Nc2ccc(NC(=O)Nc3ccc(-c4nc(N5CCOCC5)nc(N5CCOCC5)n4)cc3)cc2)CC1 [Example 498, N-[4-({[4-(4,6-dimorpholin-4-yl-1,3,5-triazin-2-yl)phenyl]carbamoyl}amino)phenyl]-4-methylpiperazine-1-carboxamide]			< 1.7	2.5	2.35 nM		16.5	4							
CC(C)c1nc(-c2ccc(NC(=O)Nc3ccc(C(=O)N4CCC(N(C)C)CC4)cc3)cc2)nc(N2CCOCC2)n1 [Example 308, 1-(4-{[4-(dimethylamino)piperidin-1-yl]carbonyl}phenyl)-3-{4-[4-(1-methylethyl)-6-morpholin-4-yl-1,3,5-triazin-2-yl]phenyl}urea]	4	53	3	14	2.9 nM										
O=C(Nc1ccncc1)Nc1ccc(-c2nc(CCCN3CCCC3)nc(N3CCOCC3)n2)cc1 [Example 276, 1-{4-[4-morpholin-4-yl-6-(3-pyrrolidin-1-ylpropyl)-1,3,5-triazin-2-yl]phenyl}-3-pyridin-4-ylurea]	1350	1650	34	597	60 nM and 75.5 nM		1650					31.5	412		
Cc1ccc(-c2nc(-c3ccc(NC(=O)Nc4ccc(C(=O)NCCCN(C)C)cc4)cc3)nc(N3CCOCC3)n2)cc1 [Example 554, N-[3-(dimethylamino)propyl]-4-[({4-[4-(4-methylphenyl)-6-morpholin-4-yl-1,3,5-triazin-2-yl]phenyl}carbamoyl)amino]benzamide]			15	156	11.9 nM	521	> 1000								
CN1CCN(C(=O)c2ccc(NC(=O)Nc3ccc(-c4nc(N5CCCCC5)nc(N5CCOCC5)n4)cc3)cc2)CC1 [Example 597, 1-{4-[(4-methylpiperazin-1-yl)carbonyl]phenyl}-3-[4-(4-morpholin-4-yl-6-piperidin-1-yl-1,3,5-triazin-2-yl)phenyl]urea]			5	58	11 nM		229	45							
O=C(Nc1ccc(C(=O)NCCc2ccccn2)cc1)Nc1ccc(-c2nc(N3CCOCC3)nc(N3C4COCC3COC4)n2)cc1 [Example 778, 4-[({4-[4-(3,7-dioxa-9-azabicyclo[3.3.1]non-9-yl)-6-morpholin-4-yl-1,3,5-triazin-2-yl]phenyl}carbamoyl)amino]-N-(2-pyridin-2-ylethyl)benzamide]			11.5	126	0.28 nM	17	29								
O=C(Nc1ccc(C(=O)O)cc1)Nc1ccc(-c2nc(N3CCOCC3)nc(N3CCOCC3)n2)cc1 [Example 67, 4-[3-{4-(4,6-dimorpholino-1,3,5-triazin-2-yl)phenyl}ureido]benzoic acid]			6	48	1.45 nM									816	28
COCCNC(=O)c1ccc(NC(=O)Nc2ccc(-c3nc(N4CCCOCC4)nc(N4CCOCC4)n3)cc2)cc1 [Example 574, N-(2-methoxyethyl)-4-[({4-[4-morpholin-4-yl-6-(1,4-oxazepan-4-yl)-1,3,5-triazin-2-yl]phenyl}carbamoyl)amino]benzamide]			1	12.5	6 nM	6	25								
CC(C)c1nc(-c2ccc(NC(=O)Nc3ccc(C(=O)Nc4ccncc4)cc3)cc2)nc(N2CCOCC2)n1 [Example 309, 4-[({4-[4-(1-methylethyl)-6-morpholin-4-yl-1,3,5-triazin-2-yl]phenyl}carbamoyl)amino]-N-pyridin-4-ylbenzamide]	64	109	12	95	3.5 nM										
